Test results as given in PubChem BioAssay (NCI).
Values joined by “and” are separate entries in the source; they are usually repeats but may differ in a detail not shown here. Equal entries are not always repeated.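 Method: 48-hour compound exposure of cells in 96-well plates, five concentrations, linear interpolation of endpoints. GI50 = concentration required for 50% inhibition of growth. TGI denotes the concentration required for complete inhibition of growth.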

Legend:
Experiment in all cases: NCI tumour cell line growth inhibition, 48 h
NCI/ADR-RES ovarian = system: NCI/ADR-RES ovarian
OVCAR-8 ovarian = system: OVCAR-8 ovarian
MCF7 breast = system: MCF7 breast
HCT-116 colon = system: HCT-116 colon
NCI-H522 lung = system: NCI-H522 lung
ACHN renal = system: ACHN renal
MALME-3M melanoma = system: MALME-3M melanoma
RXF 393 renal = system: RXF 393 renal
DMS 273 small cell lung = system: DMS 273 small cell lung
SNB-78 CNS = system: SNB-78 CNS

| SMILES | GI50 (NCI/ADR-RES ovarian) | TGI (NCI/ADR-RES ovarian) | GI50 (OVCAR-8 ovarian) | TGI (OVCAR-8 ovarian) | GI50 (MCF7 breast) | TGI (MCF7 breast) | GI50 (HCT-116 colon) | TGI (HCT-116 colon) | GI50 (NCI-H522 lung) | TGI (NCI-H522 lung) | GI50 (ACHN renal) | TGI (ACHN renal) | GI50 (MALME-3M melanoma) | TGI (MALME-3M melanoma) | GI50 (RXF 393 renal) | TGI (RXF 393 renal) | TGI (DMS 273 small cell lung) | TGI (SNB-78 CNS) |
| --- | --- | --- | --- | --- | --- | --- | --- | --- | --- | --- | --- | --- | --- | --- | --- | --- | --- | --- |
| [2H]C([2H])([2H])NC(=O)c1nnc(NC(=O)C2CC2)cc1Nc1cccc(-c2ncn(C)n2)c1OC | 51.3 µM | > 100 µM | 27.4 µM | > 100 µM | 92.9 µM | > 100 µM | 9.79 µM | > 100 µM | 23 µM | > 100 µM | 5.53 µM | > 100 µM | 98 µM | > 100 µM | 6.04 µM | > 100 µM |  |  |
| O=[N+]([O-])c1cc[n+]([O-])c2ccccc12 | 0.965 µM | 4.86 µM | 0.33 µM | 2.12 µM | 0.047 µM | 2.2 µM | 0.0698 µM | 0.316 µM | 0.214 µM | 0.754 µM | 0.142 µM | 0.512 µM | 0.147 µM | 1.12 µM | 0.211 µM | 0.619 µM |  |  |
| Cc1ccc(S(=O)(=O)N/N=C(\c2nc3ccc(Cl)cc3[nH]c2=O)C(O)c2ccco2)cc1 (stereo not given) |  |  |  |  |  |  |  | > 100 µM |  |  |  | > 100 µM |  | > 100 µM |  | > 100 µM | > 100 µM |  |
| O=C1NC(N/N=C\C(O)C(O)C(O)C(O)CO)=N/C1=C/c1ccccc1 (stereo not given) |  | > 100 µM | > 100 µM and 22.8 µM | > 100 µM and 52.5 µM | 40.3 µM and 13.5 µM and > 61.4 µM | > 100 µM and 30.7 µM | 52.2 µM and 16.4 µM and > 100 µM | > 100 µM and 33.8 µM | 96.5 µM and 18.6 µM and > 100 µM | > 100 µM and 40.5 µM | 80.6 µM and 14.7 µM and > 100 µM | > 100 µM and 28.1 µM | > 100 µM and 19.3 µM | > 100 µM and 37.6 µM | > 100 µM and 21.7 µM | > 100 µM and 44 µM |  |  |
| OC1(c2ccccc2)C2CC=CC2C1(c1ccccc1)c1ccccc1 (stereo not given) |  | > 100 µM |  | > 100 µM |  | 79.4 µM |  | > 100 µM |  | 32.7 µM |  | > 100 µM |  | 53 µM |  | 46.3 µM |  |  |
| O=C(NCCN1CCOCC1)OCc1nc2nc(Cl)nc(N3CCOCC3)c2[nH]1 | 0.566 µM | > 100 µM | 2.09 µM | > 100 µM | 2.02 µM | > 100 µM | 2.41 µM | > 100 µM | 1.11 µM | > 100 µM | 0.901 µM | > 100 µM | 4.41 µM | > 100 µM | 1.87 µM | 6.78 µM |  |  |
| CO/N=C(\COc1ccc2c(=O)c3ccccc3oc2c1)c1ccccc1 | 77.1 µM | > 100 µM | 30.4 µM | 97.2 µM | 37.9 µM | > 100 µM | 68.6 µM | > 100 µM | 33.4 µM | > 100 µM | 24 µM | 52.7 µM | 19.1 µM | 48.3 µM | 39 µM | > 100 µM |  |  |
| C#CC1(O)CCC2C3CCc4cc(Oc5nc(F)nc(-c6c7ccccc7c7n6CCS7)n5)ccc4C3CC[C@@]21C (stereo not given in full) |  |  |  | > 100 µM |  |  |  | 25.8 µM |  | 20.9 µM |  | > 100 µM |  | > 100 µM |  |  | 87.8 µM |  |
| C=CO/N=[N+](\[O-])N(CC)CC |  | > 100 µM |  | > 100 µM |  | > 100 µM |  | > 100 µM |  | > 100 µM |  | > 100 µM |  | > 100 µM |  | > 100 µM |  |  |
| COc1cc2c3c(n(CCCN)c(=O)c2cc1OC)-c1ccc([N+](=O)[O-])cc1C3=O | 14 µM | > 100 µM | 2 µM | 5.41 µM | 0.317 µM | 1.96 µM | 1.32 µM | 2.74 µM | 0.489 µM | 10.8 µM | 5.2 µM | 16.7 µM | 16.7 µM | 40.5 µM | 19.2 µM | 43.7 µM |  |  |
| C=CC(=O)N1CCC(c2ccc(C(N)=O)c(-c3ccc(Oc4ccccc4)cc3)n2)CC1 | 30.3 µM | > 100 µM | 30.9 µM | > 100 µM | 22.7 µM | > 100 µM | 35.9 µM | > 100 µM | 11.2 µM | 60.3 µM | 25.3 µM | > 100 µM | 36.1 µM | > 100 µM | 12.5 µM | 53.6 µM |  |  |
| Cc1cc(N(CCC#N)S(=O)(=O)c2ccccc2)ccc1/C=C1\N=C(c2ccc(Cl)cc2)OC1=O |  |  |  | > 100 µM |  |  |  | > 100 µM |  |  |  | > 100 µM |  | > 100 µM |  | > 100 µM | > 100 µM | > 100 µM |
| O=C(CCN1CCCC1)Nc1ccc2c(NCc3ccccc3)c3ccccc3nc2c1 | 11.9 µM | 55 µM | 0.452 µM | 2.84 µM | 0.286 µM | 1.18 µM | 0.309 µM | 1.31 µM | 0.298 µM | 1.34 µM | 0.465 µM | 2.22 µM | 0.605 µM | 1.99 µM | 0.349 µM | 1.38 µM |  |  |
| COc1ccc2c(c1)nc(NNC(=O)c1cnccn1)c1cccn12 | 0.25 µM | 3.26 µM | 0.229 µM | 3.05 µM | 0.266 µM | 1.86 µM | 0.143 µM | 2.71 µM | 0.393 µM | 5.37 µM | 0.0906 µM | 1.4 µM | 1.06 µM | 2.93 µM | 0.689 µM | 2.47 µM |  |  |
| CCO/C=C1\N=C(c2ccc(Cl)c(Cl)c2)OC1=O |  |  |  | > 100 µM |  |  |  |  |  | > 100 µM |  | > 100 µM |  | > 100 µM |  | > 100 µM | > 100 µM | > 100 µM |
| O=C1CCc2c(sc3[nH]c(=S)n(-c4cc(C(F)(F)F)cc(C(F)(F)F)c4)c(=O)c23)C1 | 0.351 µM | 11.4 µM | 0.457 µM | > 37.8 µM | 0.447 µM | 16.4 µM | 0.341 µM | 2.54 µM | 0.344 µM | 1.5 µM | 0.344 µM | 1.31 µM | 0.462 µM | 2.77 µM | 0.392 µM | 5.16 µM |  |  |
